Test results taken from PMC12669040, “Tumour-specific STING agonist synthesis via a two-component prodrug system” (Nature Chemistry, 2025).
Values joined by “and” are separate entries in the source; they are usually repeats but may differ in a detail not shown here. Equal values may be shown once. Read-outs that look alike come from different tables or passages of the source.

Assays:
[1] = tested on: THP-1 Lucia ISG cells (interferon pathway); test: Potency test of purified dimers on THP-1 Lucia ISG reporter cells; assay type: cell-based, human; conditions: for Raw readings: replicates 1-3; for fold induction at 0.000508053 µM / fold induction at 0.00152416 µM / fold induction at 0.00457247 µM / fold induction at 0.0137174 µM / fold induction at 0.0411523 µM / fold induction at 0.123457 µM / fold induction at 0.37037 µM / fold induction at 1.11111 µM / fold induction at 3.33333 µM / fold induction at 10 µM / EC50: Homo sapiens, THP1-Lucia ISG, 24 h; for fold induction at 0.000508053 µM: Concentration 0.508053 nM; for fold induction at 0.000508053 µM / fold induction at 0.00152416 µM / fold induction at 0.00457247 µM / fold induction at 0.0137174 µM / fold induction at 0.0411523 µM / fold induction at 0.123457 µM / fold induction at 0.37037 µM / fold induction at 1.11111 µM / fold induction at 3.33333 µM / fold induction at 10 µM: three replicates, read-out: Processed reporter response per replicate (reading relative to DMSO); for fold induction at 0.00152416 µM: Concentration 1.52416 nM; for fold induction at 0.00457247 µM: Concentration 4.57247 nM; for fold induction at 0.0137174 µM: Concentration 13.7174 nM; for fold induction at 0.0411523 µM: Concentration 41.1523 nM; for fold induction at 0.123457 µM: Concentration 123.457 nM; for fold induction at 0.37037 µM: Concentration 370.37 nM; for fold induction at 1.11111 µM: Concentration 1111.11 nM; for fold induction at 3.33333 µM: Concentration 3333.33 nM; for fold induction at 10 µM: Concentration 10000 nM; for EC50: three biological replicates, mean ± s.d., read-out: EC50 THP-1
Method: Cells were pelleted (150g, 10 min) and resuspended in the growth medium (40% conditioned) at a density of 1 × 10^6 cells ml^−1. The cell suspension was dispensed (50 µl each well) into a lidded white 96-well plate (BrandTech 781665). Test compounds or DMSO control were diluted in the growth medium and sterilized by filtering through 0.22-µm polyethersulfone (PES) membranes (Merck SLGP033RS). […] Upon cooling down to room temperature, 50 µl of reconstituted luciferase substrate (InvivoGen QUANTI-Luc) was added to each well via the injector of the plate reader (Molecular Devices SpectraMax i3x), and the luminescence output was recorded (4 s delay, 0.1 s integration). Raw signals were divided by the averaged signal of the DMSO-treated control wells and reported in relative luminescence unit (RLU). The dose–response curve of each replicate was fitted individually using the standard 4PL model (GraphPad Prism). The EC50 value of each compound was averaged from three independent experiments and reported as mean ± s.e.m.

[2] = target: T1, wild-type human STING LBD (hSTINGwt 138-379) (Homo sapiens, UniProt Q86WV6, H232R); test: Isothermal titration calorimetry (ITC), reverse titration; assay type: binding
T1 construct: SUMO (N, cleaved yes); made in house; host or cells: Escherichia coli BL21 (DE3)
T1 sequence (Q86WV6 138-379 H232R): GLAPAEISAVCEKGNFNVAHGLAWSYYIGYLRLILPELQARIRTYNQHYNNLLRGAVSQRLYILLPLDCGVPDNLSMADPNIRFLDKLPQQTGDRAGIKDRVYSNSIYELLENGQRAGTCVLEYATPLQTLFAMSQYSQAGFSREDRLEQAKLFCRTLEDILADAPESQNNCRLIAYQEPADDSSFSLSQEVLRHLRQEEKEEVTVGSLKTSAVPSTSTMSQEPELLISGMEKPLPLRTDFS
Method: Escherichia coli BL21 (DE3) (Thermo Scientific EC0114) was transformed with a pET28a plasmid (Genscript) harbouring the codon-optimized sequence of SUMO-hSTINGwt (aa138-379). Transformed BL21 cells were inoculated into LB medium (50 µg ml^−1 kanamycin) and incubated at 180 rpm, 37 °C overnight. The overnight culture was then diluted (1:100 dilution) in 2× YT medium (50 µg ml^−1 kanamycin) and incubated at 180 rpm, 37 °C until optical density at 600 nm (OD600) reached 0.6 (approximately 3 h). The bacterial culture was then cooled to 16 °C, induced with 0.5 mM isopropyl 1-thio-D-galactopyranoside and incubated overnight at 180 rpm, 16 °C. The bacterial cells were pelleted at 4,000g for 30 min, resuspended in 20 ml of lysis buffer (25 mM HEPES pH 7.5, 150 mM NaCl, 20 mM imidazole and 2 mM TCEP supplied with 2 tablets of cOmplete mini EDTA-free protease inhibitors) and disrupted by sonication on ice. The total lysate was clarified by centrifugation at 22,000g for 30 min. The supernatant was collected and filtered through a 0.45-µm filter (Millipore SLHAR33SS). The clarified lysate was then incubated on a roller with 10 ml bed volume of Ni-NTA resin (Thermo Scientific 88223) at 4 °C for 1 h. The Ni-NTA resin was then packed in a column, flushed with 20 ml of wash buffer (25 mM HEPES pH 7.5, 150 mM NaCl and 20 mM imidazole) and eluted with 40 ml of elution buffer (25 mM HEPES pH 8.0, 150 mM NaCl and 250 mM imidazole). The eluted protein was concentrated to approximately 5 ml (Millipore Amicon 10 kDa molecular weight cut-off (MWCO)) and buffer-exchanged into storage buffer (25 mM HEPES pH 7.5 and 150 mM NaCl). TCEP was then added to a final concentration of 2 mM, and 250 units of SUMO protease (Merck SAE0067) were added. The cleavage reaction mixture was left to stand at 4 °C overnight until LC–MS analysis indicated the completion of the cleavage reaction. The cleavage mixture was incubated with 10 ml bed volume of Ni-NTA resin on a roller at 4 °C for 1 h and packed in a disposable column. The flowthrough was collected, and the resin was further flushed with 20 ml of wash buffer. The eluted fractions were combined, concentrated and further purified by size-exclusion chromatography (Cytiva, Superdex 200 Increase 10/300 GL). The purified protein in storage buffer was concentrated to 330 µM (dimer concentration) as determined by bicinchoninic acid (BCA) assay, aliquoted, flash-frozen in liquid nitrogen and stored at −80 °C for future use.
The binding constants of purified dimers were measured by ITC (Malvern Panalytical AutoITC200) in a reverse-titration format. Stock DMSO solutions of each dimer were dissolved in titration buffer (25 mM HEPES pH 7.5 and 150 mM NaCl) to a final concentration of 25 µM and added to the titration cell. The syringe was filled with 250 µM of purified STING in a matching buffer. Titration was performed at 25 °C with the following parameters: 750 rpm stirring, 0.2 µl initial injection followed by 2-µl injections of the […] every 120 s. Titration of STING protein into blank buffer was separately performed and subtracted from the raw data before the analysis. The background-subtracted titration curves were fitted with the built-in Origin software using the standard one-site model.
Extended Data Fig. 2 Isothermal titration calorimetry (ITC) data for binding constant measurements. Purified hSTINGwt138-379 (250 μM of homodimer) was titrated into each dimer (25 μM) dissolved in a matching buffer (25 mM HEPES pH 7.5, 150 mM NaCl) at 25 °C and 750 rpm stirring. Binding constants were reported as the average from duplicate measurements.

[3] = 25 °C, average of duplicate measurements, read-out: Kd hSTINGwt (binding constant, ITC)

| Structure (SMILES) | Raw readings ([1]; Conc 0.508053 nM) | Raw readings ([1]; Conc 1.52416 nM) | Raw readings ([1]; Conc 4.57247 nM) | Raw readings ([1]; Conc 13.7174 nM) | Raw readings ([1]; Conc 41.1523 nM) | Raw readings ([1]; Conc 123.457 nM) | Raw readings ([1]; Conc 370.37 nM) | Raw readings ([1]; Conc 1111.11 nM) | Raw readings ([1]; Conc 3333.33 nM) | Raw readings ([1]; Conc 10000 nM) | fold induction at 0.000508053 µM [1] | fold induction at 0.00152416 µM [1] | fold induction at 0.00457247 µM [1] | fold induction at 0.0137174 µM [1] | fold induction at 0.123457 µM [1] | fold induction at 0.37037 µM [1] | fold induction at 1.11111 µM [1] | fold induction at 3.33333 µM [1] | fold induction at 10 µM [1] | EC50 [1] | also measured |
| --- | --- | --- | --- | --- | --- | --- | --- | --- | --- | --- | --- | --- | --- | --- | --- | --- | --- | --- | --- | --- | --- |
| COc1cc2sc(C(=O)CCC(=O)O)cc2cc1Sc1cc2cc(C(=O)CCC(=O)O)sc2cc1OC [Compound D1] | 1353 RLU and 1053 RLU and 1124 RLU | 759 RLU and 868 RLU and 713 RLU | 1002 RLU and 721 RLU and 729 RLU | 1412 RLU and 851 RLU and 1233 RLU | 3959 RLU and 4405 RLU and 4421 RLU | 44787 RLU and 77696 RLU and 48848 RLU | 107911 RLU and 161465 RLU and 94323 RLU | 125522 RLU and 220455 RLU and 140381 RLU | 142408 RLU and 266422 RLU and 170286 RLU | 176790 RLU and 287573 RLU and 159056 RLU | 1.85 | 1.04 | 1.37 | 1.93 | 61.3 | 148 | 172 | 195 | 242 | 291 ± 22 nM | fold induction at 0.0411523 µM [1]: 5.41; Kd [2, 3]: 65 nM; Kd ([2]; ITC run _01, read-out: Kd): 80 nM; Kd ([2]; ITC run _02, read-out: Kd): 50 nM |
| COc1cc2sc(C(=O)CCC(=O)O)cc2cc1CSc1cc2cc(C(=O)CCC(=O)O)sc2cc1OC [Compound D2] | 658 RLU and 1263 RLU and 1053 RLU | 564 RLU and 729 RLU and 601 RLU | 1074 RLU and 921 RLU and 1413 RLU | 6767 RLU and 16752 RLU and 12692 RLU | 51165 RLU and 121226 RLU and 61063 RLU | 102439 RLU and 196826 RLU and 100000 RLU | 111711 RLU and 237713 RLU and 134702 RLU | 126733 RLU and 297637 RLU and 176097 RLU | 139803 RLU and 327985 RLU and 173658 RLU | 138886 RLU and 307582 RLU and 153848 RLU | 0.9 | 0.771 | 1.47 |  |  | 153 | 173 | 191 |  | 74 ± 12 nM | Kd [2, 3]: 46 nM; Kd ([2]; ITC run _01, read-out: Kd): 79 nM; Kd ([2]; ITC run _02, read-out: Kd): 13 nM |
| COc1cc2sc(C(=O)CCC(=O)O)cc2cc1CCCSc1cc2cc(C(=O)CCC(=O)O)sc2cc1OC [Compound D4] | 972 RLU and 1002 RLU and 881 RLU | 820 RLU and 522 RLU and 439 RLU | 921 RLU and 829 RLU and 583 RLU | 721 RLU and 644 RLU and 533 RLU | 942 RLU and 783 RLU and 992 RLU | 1083 RLU and 911 RLU and 1043 RLU | 775 RLU and 737 RLU and 829 RLU | 962 RLU and 1173 RLU and 1233 RLU | 1143 RLU and 434 RLU and 1233 RLU | 8812 RLU and 7169 RLU and 7929 RLU | 1.37 | 0.714 | 1.13 | 0.881 | 1.25 | 1.01 | 1.6 |  | 9.81 | > 10000 nM | fold induction at 0.0411523 µM [1]: 1.07 |
| COc1cc2sc(C(=O)CCC(=O)O)cc2cc1SCSc1cc2cc(C(=O)CCC(=O)O)sc2cc1OC [Compound D5] | 1203 RLU and 820 RLU and 682 RLU | 644 RLU and 783 RLU and 699 RLU | 790 RLU and 1094 RLU and 558 RLU | 2256 RLU and 4162 RLU and 2105 RLU | 27829 RLU and 66900 RLU and 34361 RLU | 93770 RLU and 170286 RLU and 89246 RLU | 121713 RLU and 224782 RLU and 129344 RLU | 143643 RLU and 288417 RLU and 167064 RLU | 169624 RLU and 310357 RLU and 172333 RLU | 161133 RLU and 278063 RLU and 147917 RLU |  | 0.881 |  |  | 128 | 166 | 196 | 232 | 220 | 112 ± 6 nM | Kd [2, 3]: 32 nM; Kd ([2]; ITC run _01, read-out: Kd): 33 nM; Kd ([2]; ITC run _02, read-out: Kd): 31 nM |
| COc1cc2sc(C(=O)CCC(=O)O)cc2cc1SCCCSc1cc2cc(C(=O)CCC(=O)O)sc2cc1OC [Compound D6] | 775 RLU and 627 RLU and 744 RLU | 1043 RLU and 675 RLU and 1023 RLU | 1143 RLU and 972 RLU and 595 RLU | 992 RLU and 713 RLU and 1033 RLU | 501 RLU and 595 RLU and 1053 RLU | 890 RLU and 1002 RLU and 706 RLU | 1023 RLU and 470 RLU | 689 RLU and 699 RLU and 1023 RLU | 595 RLU and 992 RLU and 806 RLU | 722 RLU and 829 RLU and 644 RLU | 0.858 | 0.923 | 1.33 | 0.975 | 1.37 |  | 0.956 |  | 1.13 | > 10000 nM |  |
